Patent US10919941B2, “Functional lipid constructs” (KODE BIOTECH LIMITED, priority 2007, dated 2021)
No end group written: not given here.

Key:
Assay type in all cases: cell-based, human
[1] = tested on: Miltenberger Antibody Positive Panel; assay: Reactivity of modified RBCs against the Miltenberger Antibody Positive Panel; set-up: key to score vs panel 15 TAP2 / score vs panel 4 T7202 / score vs panel 8 T5896 / score vs panel 2 T217 / score vs panel 3 T165 / score vs panel 14 TAP1 / score vs panel 10 Mia / score vs panel 11 Mur / score vs panel 12 Gam / score vs panel 6 T6025 / score vs panel 7 T8445 / score vs panel 9 MIII / score vs panel 13 BoxH / reactivity with Panel Serum #7 (T8445) / agglutination score, Panel Serum #7 (T8445): 0 or ‘−’ no agglutination; 0 or ‘−’ no agglutination; 1+ or 3=very weak agglutination; 1+ or 3=very weak agglutination; 2+ or 5=weak agglutination; 2+ or 5=weak agglutination; 3+ or 8=moderate strong agglutination; 3+ or 8=moderate strong agglutination; 4+ or 10/12=strong agglutination; 4+ or 10/12=strong agglutination; 4+ or 10/12=strong agglutination
[2] = tested on: sera reactive with modified RBCs; assay: Neutralisation of reactive sera with free peptide, retested against modified RBCs (BioVue); set-up: key: 0 or ‘−’ no agglutination; 0 or ‘−’ no agglutination; 1+ or 3=very weak agglutination; 1+ or 3=very weak agglutination; 2+ or 5=weak agglutination; 2+ or 5=weak agglutination; 3+ or 8=moderate strong agglutination; 3+ or 8=moderate strong agglutination; 4+ or 10/12=strong agglutination; 4+ or 10/12=strong agglutination; 4+ or 10/12=strong agglutination; conditions: cells modified with the peptide-lipid construct M22; AHG test in BioVue
Excerpt: Optionally, where F is a peptide, the method includes the preliminary step of: • Adding an amount of the peptide to the sample of the serum; where the amount of the peptide is sufficient to neutralize non-specific agglutination or confirm specificity of the reactive antibody.

[3] = tested on: Miltenberger antibody positive sera; assay: BioVue AHG card column agglutination serology of modified red blood cells; set-up: key: 0 or ‘−’ no agglutination; 0 or ‘−’ no agglutination; 1+ or 3=very weak agglutination; 1+ or 3=very weak agglutination; 2+ or 5=weak agglutination; 2+ or 5=weak agglutination; 3+ or 8=moderate strong agglutination; 3+ or 8=moderate strong agglutination; 4+ or 10/12=strong agglutination; 4+ or 10/12=strong agglutination; 4+ or 10/12=strong agglutination
[4] = tested on: TAP1 serum (Taiwan Miltenberger antibody positive sample); assay: Anti-MUT serum (TAP1) reactivity of modified RBCs (saline and AHG); set-up: key: 0 or ‘−’ no agglutination; 0 or ‘−’ no agglutination; 1+ or 3=very weak agglutination; 1+ or 3=very weak agglutination; 2+ or 5=weak agglutination; 2+ or 5=weak agglutination; 3+ or 8=moderate strong agglutination; 3+ or 8=moderate strong agglutination; 4+ or 10/12=strong agglutination; 4+ or 10/12=strong agglutination; 4+ or 10/12=strong agglutination

M22: DOPE peptide-lipid construct: MUTK peptide SQTNDKHKRD, leader c, spacer CMG(2) (SQTNDKHKRDC; also: DOPE peptide-lipid construct via leader Cys, spacer CMG(2))
sensitivity and specificity towards a human polyclonal antibody panel compared with sequence 1 ([1]; MUT peptides, prior art sequence 1): superior sensitivity and specificity
score vs panel 2 T217 ([1]; Table 8, construct 200 μg/ml): 0
score vs panel 3 T165 ([1]; Table 8, construct 200 μg/ml): 0
score vs panel 4 T7202 ([1]; Table 8, construct 200 μg/ml): 0
score vs panel 6 T6025 ([1]; Table 8, construct 200 μg/ml): 10
score vs panel 7 T8445 ([1]; Table 8, construct 200 μg/ml): 0
score vs panel 8 T5896 ([1]; Table 8, construct 200 μg/ml): 0
score vs panel 9 MIII ([1]; Table 8, construct 200 μg/ml): 0
score vs panel 10 Mia ([1]; Table 8, construct 200 μg/ml): 0
score vs panel 11 Mur ([1]; Table 8, construct 200 μg/ml): 0
score vs panel 12 Gam ([1]; Table 8, construct 200 μg/ml): 3
score vs panel 15 TAP2 ([1]; Table 8, construct 200 μg/ml): 0
Pre-neutralisation serology, PAC74 [2]: 8
Pre-neutralisation serology, TAP1 [2]: 8
BioVue score vs TAP1 ([3]; construct 50 μg/ml): 8
BioVue score vs positive sample 2 T217 (T) ([3]; construct 50 μg/ml): 0
BioVue score vs positive sample 3 T165 (Mur) ([3]; construct 50 μg/ml): 0
BioVue score vs positive sample 4 T7202 (M) ([3]; construct 50 μg/ml): 0
BioVue score vs positive sample 8 T5896 (M + K + Mur) ([3]; construct 50 μg/ml): 0
TAP 2 Serum BioVue AHG score ([3]; construct 100 μg/ml): 0
TAP 1 Serum, AHG score ([4]; construct 10 μg/ml): 5
TAP 1 Serum, Saline score ([4]; construct 10 μg/ml): 0
TAP 1 Serum, AHG score ([4]; construct 20 μg/ml): 8
TAP 1 Serum, Saline score ([4]; construct 20 μg/ml): 0
TAP 1 Serum, AHG score ([4]; construct 50 μg/ml): 8
TAP 1 Serum, Saline score ([4]; construct 50 μg/ml): 0
Reactivity with anti-MUT serum TAP1 ([4]; construct 50 μg/ml (2 hours, 37° C.)): 8
TAP 1 Serum, AHG score ([4]; construct 100 μg/ml): 8
TAP 1 Serum, Saline score ([4]; construct 100 μg/ml): 0
TAP 1 Serum, AHG score ([4]; construct 200 μg/ml): 10
TAP 1 Serum, Saline score ([4]; construct 200 μg/ml): 0
